Results reported in patent US9062051B2, “Compounds and pharmaceutical compositions thereof for the treatment of proliferative disorders” (GALAPAGOS NV, priority 2014, dated 2015).
pIC50: −log10 of the molar value. One block for each compound: values may come before it.

Key:
EphA2 = target: T1, EphA2 (UniProt Ref: P29317) (Homo sapiens, UniProt P29317); assay: EphA2 assay (Reaction Biology HotSpot radioactive kinase assay); format: biochemical; details: ATP 10 μM; read-out: EphA2 potency IC50
T1 construct: purchased Reaction Biology
T1 sequence (P29317 24-976): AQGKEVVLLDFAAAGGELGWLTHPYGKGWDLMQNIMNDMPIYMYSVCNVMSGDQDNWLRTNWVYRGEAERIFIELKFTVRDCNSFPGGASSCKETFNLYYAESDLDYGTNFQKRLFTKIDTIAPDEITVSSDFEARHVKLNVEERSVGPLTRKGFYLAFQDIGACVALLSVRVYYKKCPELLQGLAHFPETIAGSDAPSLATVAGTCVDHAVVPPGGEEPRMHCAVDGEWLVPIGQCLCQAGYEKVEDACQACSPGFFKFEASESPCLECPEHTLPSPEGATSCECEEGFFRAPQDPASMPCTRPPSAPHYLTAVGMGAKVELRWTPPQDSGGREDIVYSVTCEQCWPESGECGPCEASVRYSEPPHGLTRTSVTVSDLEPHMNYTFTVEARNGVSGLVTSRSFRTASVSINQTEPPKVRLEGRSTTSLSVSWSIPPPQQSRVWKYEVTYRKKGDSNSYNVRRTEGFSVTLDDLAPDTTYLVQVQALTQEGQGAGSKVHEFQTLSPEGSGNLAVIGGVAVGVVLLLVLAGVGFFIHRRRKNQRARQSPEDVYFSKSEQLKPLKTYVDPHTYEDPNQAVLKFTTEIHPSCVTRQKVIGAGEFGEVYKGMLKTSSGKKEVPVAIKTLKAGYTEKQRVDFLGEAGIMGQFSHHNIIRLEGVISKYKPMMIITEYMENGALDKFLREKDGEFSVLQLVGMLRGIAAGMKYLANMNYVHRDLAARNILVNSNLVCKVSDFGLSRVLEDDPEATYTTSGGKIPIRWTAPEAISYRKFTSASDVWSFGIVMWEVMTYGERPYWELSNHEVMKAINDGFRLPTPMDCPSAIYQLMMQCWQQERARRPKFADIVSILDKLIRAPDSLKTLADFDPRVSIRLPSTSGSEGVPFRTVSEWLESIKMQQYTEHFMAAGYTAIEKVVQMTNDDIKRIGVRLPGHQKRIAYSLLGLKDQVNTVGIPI
Protocol: (§1) Inhibition of EphA2 (UniProt Ref: P29317) by a test compound is determined by a commercially available Reaction Biology proprietary nanoliter radioactive HotSpot^SM assay (Reaction Biology, One great valley parkway, Suite 2, Malvern Pa., 19355, USA). The principle of the assay consists of the measurement of incorporated ^33P into poly[Glu:Tyr] (4:1) (0.2 mg/mL) when the substrate is phosphorylated by the enzyme using [^33P]-γ-ATP and ATP (10 μM).
To determine the IC50, a serial dilution of compound is tested starting from 10, or 3 μM (highest dilution) with a 1/3 dilution.

Recombinant EphB2 = target: T2, Recombinant EphB2 (Homo sapiens, UniProt P29323); assay: EphB2 assay (33P incorporation into poly GT, filter plate); format: biochemical; details: read-out: EphB2 potency IC50
T2 construct: purchased Carna 08-129
T2 sequence (P29323 19-986 isoform P29323-2 limits assumed): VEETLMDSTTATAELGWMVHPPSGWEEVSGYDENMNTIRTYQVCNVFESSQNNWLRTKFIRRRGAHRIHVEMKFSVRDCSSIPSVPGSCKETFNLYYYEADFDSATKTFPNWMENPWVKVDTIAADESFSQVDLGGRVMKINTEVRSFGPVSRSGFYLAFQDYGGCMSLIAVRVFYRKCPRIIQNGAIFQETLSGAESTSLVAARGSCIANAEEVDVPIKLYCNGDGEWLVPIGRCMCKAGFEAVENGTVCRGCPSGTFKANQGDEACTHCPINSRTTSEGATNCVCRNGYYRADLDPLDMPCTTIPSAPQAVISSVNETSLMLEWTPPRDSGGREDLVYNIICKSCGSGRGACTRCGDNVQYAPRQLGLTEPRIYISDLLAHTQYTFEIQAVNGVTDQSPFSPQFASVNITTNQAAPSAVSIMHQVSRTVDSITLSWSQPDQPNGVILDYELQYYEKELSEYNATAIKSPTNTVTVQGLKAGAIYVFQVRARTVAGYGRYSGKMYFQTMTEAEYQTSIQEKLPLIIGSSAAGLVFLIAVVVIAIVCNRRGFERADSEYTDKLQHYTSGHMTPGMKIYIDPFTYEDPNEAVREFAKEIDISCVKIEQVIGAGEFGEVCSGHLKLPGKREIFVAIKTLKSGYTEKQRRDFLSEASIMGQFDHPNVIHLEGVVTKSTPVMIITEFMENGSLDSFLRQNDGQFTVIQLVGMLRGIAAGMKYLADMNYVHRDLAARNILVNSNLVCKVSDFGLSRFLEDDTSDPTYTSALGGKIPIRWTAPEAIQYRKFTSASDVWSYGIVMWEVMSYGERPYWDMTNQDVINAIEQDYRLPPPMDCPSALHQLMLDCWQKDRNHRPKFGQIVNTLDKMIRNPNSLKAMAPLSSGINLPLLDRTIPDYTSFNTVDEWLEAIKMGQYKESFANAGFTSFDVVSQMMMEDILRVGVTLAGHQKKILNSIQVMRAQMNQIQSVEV
Protocol: The principle of the assay consists of the measurement of incorporated ^33P into the substrate poly GT when phosphorylated by the enzyme EphB2 using [^33P]-γ-ATP and ATP. Unincorporated ^33P is removed by loading the samples on a filter plate (using a harvester, Perkin Elmer) and 6 subsequent washing steps. ^33P incorporated in polyGT is measured on a Topcount after addition of microscint to the filter plates (Perkin Elmer).
Recombinant EphB2 (Carna Cat#08-129, 0.6 ng per well) was incubated with 0.05 mg/mL Poly(Glu,Tyr)sodium salt (4:1), MW 20 000-50 000 (Sigma catalog number P0275) in kinase reaction buffer (10 mM MOPS pH 7.2, 5 mM DTT, 0.01% Triton-X100, 5 mM MnCl2, 0.5 mM Na3VO4, 5 mM beta-glycerolphosphate), 0.5 μM non-radioactive ATP, 0.25 μCi/25 μl ^33P-gamma-ATP (Perkin Elmer, catalog number NEG602K) final concentrations with or without 5 μL containing test compound or vehicle (DMSO, 1% final concentration), in a total volume of 25 μL, in a polypropylene 96-well plate (Greiner, V-bottom). After 45 min at 30° C., reactions were stopped by adding of 25 μL/well of 150 mM phosphoric acid. The experiment was then conducted as described for EphA7. The ability of a test compound to inhibit the kinase activity was determined using counts per minutes (cpm) measured by the Topcount as:
Cpm (cpd): cpm determined for sample with test compound present
Cpm (control): cpm determined for sample with positive control inhibitor (10 μM staurosporine)
Cpm (vehicle): cpm determined in the presence of vehicle (1% DMSO)
Dose dilution series were prepared for the compounds enabling the testing of dose-response effects in the EphB2 assay and the calculation of the IC50 for each compound. Each compound was routinely tested at concentration of 20 μM followed by a 1/5 serial dilution, 10 points in a final concentration of 1% DMSO. When potency of compound series increased, more dilutions may be prepared and/or the top concentration may be lowered (e.g. 5 μM, 1 μM).

EphB4 = target: T3, EphB4 (UniProt Ref: Q541P7) (Homo sapiens, UniProt P54760); assay: EphB4 assay (Reaction Biology HotSpot radioactive kinase assay); format: biochemical; details: ATP 10 μM; read-out: EphB4 potency IC50
T3 construct: purchased Reaction Biology
T3 sequence (P54760 16-987): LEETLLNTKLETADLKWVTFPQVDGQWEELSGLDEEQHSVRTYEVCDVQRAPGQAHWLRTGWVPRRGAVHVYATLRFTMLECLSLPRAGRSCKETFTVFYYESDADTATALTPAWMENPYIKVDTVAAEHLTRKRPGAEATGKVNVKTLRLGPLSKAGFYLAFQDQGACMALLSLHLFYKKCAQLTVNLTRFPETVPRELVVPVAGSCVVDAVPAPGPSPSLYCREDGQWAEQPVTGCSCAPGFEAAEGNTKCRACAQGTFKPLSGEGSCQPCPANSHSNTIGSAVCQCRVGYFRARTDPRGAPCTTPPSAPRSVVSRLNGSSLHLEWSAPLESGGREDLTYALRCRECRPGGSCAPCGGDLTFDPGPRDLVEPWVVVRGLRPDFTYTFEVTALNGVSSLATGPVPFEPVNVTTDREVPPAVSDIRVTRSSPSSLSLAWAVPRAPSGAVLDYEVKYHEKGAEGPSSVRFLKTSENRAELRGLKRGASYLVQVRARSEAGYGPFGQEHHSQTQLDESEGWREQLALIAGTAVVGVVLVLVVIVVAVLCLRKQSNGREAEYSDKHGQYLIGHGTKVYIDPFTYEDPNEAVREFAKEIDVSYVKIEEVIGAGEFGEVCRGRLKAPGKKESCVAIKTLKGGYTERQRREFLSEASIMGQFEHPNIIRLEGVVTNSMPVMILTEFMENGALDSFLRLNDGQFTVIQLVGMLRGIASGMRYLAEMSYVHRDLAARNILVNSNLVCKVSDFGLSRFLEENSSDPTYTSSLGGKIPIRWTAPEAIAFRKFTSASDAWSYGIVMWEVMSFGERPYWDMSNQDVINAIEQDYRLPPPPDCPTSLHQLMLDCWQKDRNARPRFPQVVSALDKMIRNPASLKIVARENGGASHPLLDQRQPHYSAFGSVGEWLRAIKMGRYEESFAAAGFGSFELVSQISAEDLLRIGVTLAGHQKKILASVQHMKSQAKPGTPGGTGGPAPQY
Protocol: as §1, with “EphB4” for “EphA2”, “Q541P7)” for “P29317)”
To determine the IC50, a serial dilution of compound is tested starting from 10 or 3 μM (highest dilution) with a 1/3 dilution.

[1] = Pharmacokinetics in rats (exposure, AUC); format: in vivo, male Sprague Dawley rats; details: male, Sprague Dawley, rat, plasma, po, 5 mg/kg
Protocol: This study is performed with 6 naïve male Sprague Dawley rats (180-200 g, 6-8 weeks old). Rats are obtained from Janvier, Le Genest St Isle, France.
A controlled environment is maintained in the room with optimal conditions of approximately 15 air changes per hour, a temperature of 22±2 C, a relative humidity of 30-70% and a 12 hour light/dark cycle
Pelleted diet for rodents (UAR A04C-10) is used and is provided ad libitum. Before p.o. dosing, the animals are deprived of food for at least 12 hours before compound administration and 4 hours after administration. All animals had free access to tap water.
Two days before the dosing day, the implantation of a catheter in the jugular vein is done under gaseous anaesthesia with isoflurane.
Rats are dosed intravenously with test compound via a bolus in the tail vein with a dose level of 1 mg/kg. […]
The i.v. bolus and the oral administration are given a dose volume of 5 mL/kg.
From all animals approximately 200 μL blood samples are collected via the catheter and placed into tubes containing Li-heparin as anticoagulant. Blood samples are collected at the various time points (i.v.: 0.05, 0.25, 0.5, 1, 3, 5, 8 and 24 hours after dosing; p.o.: 0.25, 0.5, 1, 3, 5, 8 and 24 hours after dosing).
Blood is kept on ice. Within 1 hour after sampling, blood is centrifuged at 5,000 rpm for 10 min at 4° C. Immediately after centrifugation, the resulting plasma samples are collected into polypropylene tubes and are kept frozen at −20° C. pending bioanalysis.
Plasma samples are assayed by LC-MS/MS. Plasma proteins are precipitated with an excess of methanol containing the internal standard and the corresponding supernatant is injected on a C18 column. Analytes are eluted out the HPLC system by increasing the percentage of the organic mobile phase. An API4000 mass spectrometer (AB Sciex™) is used for the detection and quantification.
Pharmacokinetic parameters are calculated by non-compartmental analysis using WinNonlin® software (Pharsight, version 5.2).

MDA-MB-231 cells = assay: Mouse xenograft model of human triple negative breast cancer (MDA-MB-231), tumorous growth inhibition; format: in vivo, Female BALB/c Mice; details: day 26, 20 mg/kg, ip, 3x/ week
Protocol: Animals (Female BALB/c Mice, Harlan, 51930, 18-20 g) are provided with filtered tap water and standard chow ad libitum and maintained at 22±2° C. in 55±10% humidity on a 12 h light/dark cycle.
Paclitaxel used as a positive control is formulated by 1/3 dilution of commercial solution (Fresenius kabi, 871WF014/4) in saline.
The test compounds for po administration are formulated in 0.5% methylcellulose (VWR, ref AX021233).
MDA-MB-231 cell line is obtained from the ATCC collection (ref HTB-26). The cells are then cultured in RPMI 1640 medium supplemented with […] (Gibco 15140-148) and 1% (v/v) L-Glutamine 200 mM (Gibco 25030-024) at 37° C. in a 5% CO2 incubator.
5 million MDA-MB-231 cells/mice in 0.1 mL of 50% Matrigel (BD biosciences, LDEV free 256235)+50% D-PBS 1× (Gibco 14190-086) are injected by subcutaneous route on the upper back of 120 mice. Prior to implantation, mice are anesthetized by intra-peritoneal injection with a 0.1 mL/10 g dose of anaesthetic solution (18 mL NaCl, 0.9%+0.5 mL xylazine, +1.5 mL ketamine. […]
Body weight, and tumor growth is recorded twice a week during the course of treatment.
After 26 days the treatment is stopped, in each group half of the mice are euthanized for tissue collection, and the other half is kept for a further 7 days, during which period body weight and tumour sized are measured.
In sacrificed mice, blood and tumours are collected, analysed, and the effect of the test compounds is compared with controls (vehicle and paclitaxel).
The values were obtained using the following calculations
Relative Tumor Volume (RTV):
Tumor Growth Inhibition (TGI) TGI=1−T/C

pIC50 (EphA2): 7.30 to 7.60 | pIC50 (Recombinant EphB2): 7.60 to 11.00 | pIC50 (EphB4): 7.60 to 11.00
SMILES: Cc1cc(C)cc(C(=O)Nc2ccc(C)c(-c3ccc4c(C(O)CN5CCOCC5)n[nH]c4n3)c2)c1 (stereo not drawn) [Compound 7, N-{3-[3-(1-Hydroxy-2-morpholin-4-yl-ethyl)-1H-pyrazolo[3,4-b]pyridin-6-yl]-4-methyl-phenyl}-3,5-dimethyl-benzamide]

AUC [1]: 2000 ng·h/mL
SMILES: CCc1n[nH]c2nc(-c3cc(NC(=O)c4cc(OC)cc(OC)c4)ccc3C)ccc12 [Compound 8, N-[3-(3-Ethyl-1H-pyrazolo[3,4-b]pyridin-6-yl)-4-methyl-phenyl]-3,5-dimethoxy-benzamide]

pIC50 (EphA2): 7.60 to 11.00 | AUC [1]: 274 ng·h/mL
SMILES: COc1cc(OC)cc(C(=O)Nc2ccc(C)c(-c3ccc4c(CO)n[nH]c4n3)c2)c1 [Compound 10, N-[3-(3-Hydroxymethyl-1H-pyrazolo[3,4-b]pyridin-6-yl)-4-methyl-phenyl]-3,5-dimethoxy-benzamide]

SMILES: CC(=O)O[C@H]1C(=O)[C@@]2(C)[C@H]([C@H](OC(=O)c3ccccc3)[C@]3(O)C[C@H](OC(=O)[C@H](O)[C@@H](NC(=O)c4ccccc4)c4ccccc4)C(C)=C1C3(C)C)[C@]1(OC(C)=O)CO[C@@H]1C[C@@H]2O [Paclitaxel, paclitaxel]
RTV (Relative Tumor Volume) (MDA-MB-231 cells): 2.06 | T/C (Tumour Vs Control) (MDA-MB-231 cells): 24.31% | TGI (Tumor Growth Inhibition) (MDA-MB-231 cells): 75.69%
